Values of other authors as cited in patent EP4520317A1, “TRANSDERMAL THERAPEUTIC SYSTEM OF LUMATEPERONE” (Luye Pharma Switzerland AG, priority 2023, dated 2025).

Details: in vivo

Which oral bioavailability does the source give for `CN1CCN2c3c(cccc31)[C@@H]1CN(CCCC(=O)c3ccc(F)cc3)CC[C@@H]12` [lumateperone, 1-(4-fluoro-phenyl)-4-((6bR, 10aS)-3-methyl-2,3,6b,9,10,10a-hexahydro-1H,7H-pyrido[3',4':4,5]pyrrolo[1,2,3-de]quinoxalin-8-yl)-butan-1-one] here?
Its oral bioavailability is “about 4.4%”.
